Source: patent US20110165271A1, “ANTITUMORAL TERPENOID PHARMACEUTICAL COMPOSITION 'ABISILIN' EXHIBITING ANGIOGENESIS-INHIBITING ACTION” (priority 2008, published 2011)

Legend:
[1] = system: breast adenocarcinoma Ca-755; experiment: Antitumor activity on transplantable tumor; type: in vivo, mice; conditions: Abisilin 50 mg/kg per os days 2-11 and/or Cisplatin 5 mg/kg once day 2
Procedure: (§1) The mice and rats were purchased from the Experimental Animal Division of the Blokhin Russian Oncologic Center, the Russian Academy of Medicinal Sciences, and maintained on an ordinary food ration.
(§2) Sunflower seed oil was used as the solvent for the pharmaceutical.
(§3) Cisplatin purchased from Bristol-Myers Squibb was used in the experiments.
(§4) Abisilin was administered to animals orally every day for 10 days, or in the following schedule: on the 2nd and 6th days or on the 2nd and 11th days. […] In the combined treatment, Abisilin was administered to mice orally every day for 10 days, beginning 48 h after tumor transplantation, in a dose of 50 mg/kg; the antitumor agent Cisplatin was administered once intraperitonially (ip) in a dose of 5 mg/kg. Animals bearing the aforementioned tumors were monitored until they died. The antitumor effects of the pharmaceutical were judged from percentage tumor growth inhibition (TGI, %) in the experimental animals against control animals.
(§5) The statistical significance of the antitumor effect against the untreated control was determined by the Fisher-Student test. The difference between the compared groups was regarded as statistically reliable when p≦0.05.

[2] = system: colon adenocarcinoma (CAC); experiment: Antitumor activity on transplantable tumor; type: in vivo, mice
Procedure: as §1, §2, §3, §4, §5

melanoma B-16 = experiment: Antitumor activity on transplantable tumor; type: in vivo, mice; conditions: Abisilin 50 mg/kg per os days 2-11 and/or Cisplatin 5 mg/kg once day 2
Procedure: as §1, §2, §3, §4, §5

[3] = system: metastatic colorectal cancer; conditions: patients bearing metastatic colorectal cancer; increase from 15.6 months; cited from earlier work

| Compound | TGI ([1]; day 7) | TGI ([1]; day 11) | TGI ([1]; day 14) | TGI ([1]; day 18) | TGI ([1]; day 22) | TGI ([2]; day 7, Abisilin 50 mg/kg per os days 2-11 and/or Cisplatin 5 mg/kg once day 2) | TGI ([2]; day 12, Abisilin 50 mg/kg per os days 2-11 and/or Cisplatin 5 mg/kg once day 2) | TGI ([2]; day 21, Abisilin 50 mg/kg per os days 2-11 and/or Cisplatin 5 mg/kg once day 2) | TGI ([2]; day 22, Cisplatin 5 mg/kg once day 2) | sensitivity of the tumor in monotherapy ([2]; monotherapy, Abisilin 50 mg/kg, Cisplatin 5 mg/kg) | TGI (melanoma B-16; day 7) | TGI (melanoma B-16; day 9) | TGI (melanoma B-16; day 11) | TGI (melanoma B-16; day 17) | total survival period [3] |
| --- | --- | --- | --- | --- | --- | --- | --- | --- | --- | --- | --- | --- | --- | --- | --- |
| N.N.[Cl][Pt][Cl] [Cisplatin] | 86% | 62% | 52% | 43% | 39% | 0% | 22% | 14% | 35% | insensitive | 80% | 83% | 65% | 19% |  |
| Avastin: monoclonal antibody drug binding vascular endothelial growth factor (VEGF); active substance bevacizumab |  |  |  |  |  |  |  |  |  |  |  |  |  |  | 20.3 months |
